Laboratory results reported in PMC8011931, “Identification, Structure–Activity Relationship, and Biological Characterization of 2,3,4,5-Tetrahydro-1H-pyrido[4,3-b]indoles as a Novel Class of CFTR Potentiators” (Journal of Medicinal Chemistry, 2020).
Several values for one entry are separate records, joined by “and”; a condition that tells them apart may be missing. Equal values may be shown once. Read-outs that look alike come from different tables or passages of the source.

Key:
[1] = biological target: F508del-CFTR (Homo sapiens, UniProt P13569, DEL508-508); assay: HS-YFP assay on F508del-CFTR CFBE41o- cells, acute stimulation; assay type: cell-based; design: expressed in transfected cells; settings: acute stimulation in the presence of forskolin, Figure 4A
F508del-CFTR, sequence (P13569 with tags, fused parts or gaps DEL508-508): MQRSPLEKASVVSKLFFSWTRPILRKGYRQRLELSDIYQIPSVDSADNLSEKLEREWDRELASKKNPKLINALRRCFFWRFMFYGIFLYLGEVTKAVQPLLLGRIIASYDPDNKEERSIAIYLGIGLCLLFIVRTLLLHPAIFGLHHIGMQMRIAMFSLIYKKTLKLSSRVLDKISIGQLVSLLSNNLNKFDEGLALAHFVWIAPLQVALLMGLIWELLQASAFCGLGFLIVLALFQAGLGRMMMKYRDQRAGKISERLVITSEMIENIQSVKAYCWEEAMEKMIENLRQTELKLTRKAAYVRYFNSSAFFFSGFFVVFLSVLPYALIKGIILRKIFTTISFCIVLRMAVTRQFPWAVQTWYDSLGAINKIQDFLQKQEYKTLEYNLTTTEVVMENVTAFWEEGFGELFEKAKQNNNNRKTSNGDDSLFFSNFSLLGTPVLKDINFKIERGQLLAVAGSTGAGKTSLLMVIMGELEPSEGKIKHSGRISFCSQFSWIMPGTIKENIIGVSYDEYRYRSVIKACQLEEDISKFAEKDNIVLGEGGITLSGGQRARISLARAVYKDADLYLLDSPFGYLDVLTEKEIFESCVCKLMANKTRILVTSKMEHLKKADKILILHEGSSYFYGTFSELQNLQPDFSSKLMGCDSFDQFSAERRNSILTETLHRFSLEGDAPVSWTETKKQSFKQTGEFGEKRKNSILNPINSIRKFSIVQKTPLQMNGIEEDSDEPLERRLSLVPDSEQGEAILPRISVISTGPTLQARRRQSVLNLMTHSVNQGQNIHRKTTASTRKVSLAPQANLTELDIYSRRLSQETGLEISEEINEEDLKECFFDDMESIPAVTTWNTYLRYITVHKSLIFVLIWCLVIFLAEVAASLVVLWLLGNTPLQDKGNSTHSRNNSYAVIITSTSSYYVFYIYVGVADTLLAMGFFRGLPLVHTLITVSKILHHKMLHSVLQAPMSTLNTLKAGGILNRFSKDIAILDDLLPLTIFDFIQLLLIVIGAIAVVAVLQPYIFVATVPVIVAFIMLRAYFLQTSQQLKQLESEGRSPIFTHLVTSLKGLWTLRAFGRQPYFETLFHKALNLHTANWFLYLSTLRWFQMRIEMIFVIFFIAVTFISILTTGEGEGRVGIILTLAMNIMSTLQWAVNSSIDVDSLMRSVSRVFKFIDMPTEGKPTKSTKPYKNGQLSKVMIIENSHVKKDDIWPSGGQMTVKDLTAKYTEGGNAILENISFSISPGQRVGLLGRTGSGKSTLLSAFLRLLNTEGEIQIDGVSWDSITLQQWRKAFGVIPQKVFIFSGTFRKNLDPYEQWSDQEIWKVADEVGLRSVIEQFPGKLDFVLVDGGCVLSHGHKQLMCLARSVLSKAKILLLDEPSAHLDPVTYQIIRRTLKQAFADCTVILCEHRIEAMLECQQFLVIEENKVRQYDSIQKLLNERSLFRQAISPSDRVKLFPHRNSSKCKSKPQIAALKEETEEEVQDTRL
Description: The preliminary activity of these three hits was further evaluated in secondary screening assays. Although featuring the same common scaffold, in order to possibly discriminate the most interesting hit for further structural investigations, the compounds belonging to the family of tetrahydro-γ-carbolines were tested on more relevant cell models. First, the hits were tested on an immortalized bronchial epithelial cell line (CFBE41o-) stably expressing F508del-CFTR and HS-YFP. […]
Prior assay, cells were washed with phosphate-buffered saline (PBS) containing (in mM) 137 NaCl, 2.7 KCl, 8.1 Na2HPO4, 1.5 KH2PO4, 1 CaCl2, and 0.5 MgCl2. […] Cells were then transferred to microplate readers (FluoStar Optima; BMG Labtech, Offenburg, Germany) for CFTR activity determination. The plate readers were equipped with high-quality excitation (HQ500/20X: 500 ± 10 nm) and emission (HQ535/30M: 535 ± 15 nm) filters for YFP (Chroma Technology). The assay consisted of a continuous 14 s fluorescence reading, 2 s before and 12 s after injection of 165 μL of an iodide-containing solution (PBS with Cl^– replaced by I^–; final I^– concentration 100 mM). Data were normalized to the initial background-subtracted fluorescence. […]

[2] = Pharmacokinetics after i.v. and p.o. administration to rats; assay type: in vivo, Sprague–Dawley rats; settings: for half-life at 4 h: read-out: half-life (min) (elimination phase)
Description: Based on both its biological profile, showing a good efficacy in primary and secondary assays, and preliminary in vitro ADME properties, potentiator 39 was further evaluated in in vivo studies. […]
Male Sprague–Dawley rats, 2 month old and weighing 175–200 g (Charles River, Calco, Italy), were used. Animals were group-housed in ventilated cages and had free access to food and water. They were maintained under a 12 h light/dark cycle (lights on at 8:00 am) at a controlled temperature (21 ± 1 °C) and relative humidity (55 ± 10%). All experiments were carried out in accordance with the guidelines established by the European Communities Council Directive (Directive 2010/63/EU of September 22, 2010) and approved by the National Council on Animal Care of the Italian Ministry of Health. All efforts were made to minimize animal suffering and to use the minimal number of animals required to produce reliable results.
[…] PEG400/Tween 80/saline solution was used as a vehicle at 10/10/80% in volume, respectively. Three animals per dose were treated. Blood samples at 0, 15, 30, 60, 90, 120, 240, and 360 min after administration were collected for p.o. arm. Blood samples at 0, 5, 15, 30, 60, 90, 120, and 240 min after administration were collected for i.v. arm. Plasma was separated from blood by centrifugation for 15 min at 3500 rpm at 4 °C, collected in an Eppendorf tube, and frozen (−80 °C). Control animals treated with vehicle only were also included in the experimental protocol.
Plasma samples were centrifuged at 21,100g for 15 min at 4 °C, while homogenized lung samples were vigorously whirled. An aliquot of each sample was extracted (1:3) with cold CH3CN containing 200 nM of an appropriate internal standard being a close analogue of the parent compound. A calibration curve was prepared in both blank mouse plasma and naïve lung homogenate over a 1 nM to 10 μM range. Three quality controls were prepared by spiking the parent compound in both blank mouse plasma and naïve lung homogenate to 20, 200, and 2000 nM as final concentrations. The calibrators and quality controls were extracted (1:3) with the same extraction solution as the plasma and lung samples. The plasma and lung samples, the calibrators, and quality controls were centrifuged at 3270g for 15 min at 4 °C. The supernatants were further diluted (1:1) with H2O and analyzed by LC/MS–MS on a Waters ACQUITY UPLC/MS TQD system consisting of a TQD mass spectrometer equipped with an electrospray ionization interface and a photodiode array eλ detector. Electrospray ionization was applied in the positive mode. Compound-dependent parameters such as MRM transitions and collision energy were developed for the parent compound and the internal standard. The mobile phase was H2O + 0.1% HCOOH (A) and CH3CN + 0.1% HCOOH (B) at a flow rate of 0.5 mL/min. For plasma samples, the analyses were run on an ACQUITY UPLC BEH C18 (50 × 2.1 mm ID, particle size 1.7 μm) with a VanGuard BEH C18 precolumn (5 × 2.1 mm ID, particle size 1.7 μm) at 40 °C. A linear gradient was applied starting at 30% B with an initial hold for 0.2 min and then 30–100% B in 2 min. For lung samples, the analyses were run on an ACQUITY UPLC BEH C18 (100 × 2.1 mm ID, particle size 1.7 μm) with a VanGuard BEH C18 precolumn (5 × 2.1 mm ID, particle size 1.7 μm) at 40 °C. A linear gradient was applied starting at 30% B with an initial hold for 0.2 min and then 30–100% B in 6 min. All samples (plasma and lung samples, calibrators, and quality controls) were quantified by MRM peak area response factor in order to determine the levels of the parent compound in plasma and lung. The concentrations versus time data were plotted and the profiles were fitted using PK Solutions Excel Application (Summit Research Service, USA) in order to determine the pharmacokinetic parameters.

[3] = male, Sprague-Dawley, rat, iv, 3 mg/kg, plasma
[4] = male, Sprague-Dawley, rat, plasma, iv, 3 mg/kg
[5] = male, Sprague-Dawley, rat, plasma, po, 10 mg/kg
[6] = male, Sprague-Dawley, rat, po, 10 mg/kg, plasma

Row | Structure (SMILES) | dose-dependent activation of mutant CFTR [1] | Cmax [2, 3] [ng/mL] | Cmax at 4 h [2, 3] [µM] | AUC [2, 4] | Tmax at 4 h [2, 4] [min] | Vd at 4 h [2, 4] [L/kg] | clearance at 4 h [2, 4] [mL/min/kg] | half-life at 4 h [2, 4] [min] | bioavailability ([2]; male, Sprague-Dawley, rat, plasma, oral, p.o. 10 mg/kg versus i.v. 3 mg/kg, time interval 0–4 h) [%] | AUC [2, 5] [ng·h/mL] | half-life at 4 h [2, 5] [min] | concentration at 6 h ([2]; male, Sprague-Dawley, rat, plasma, po, 10 mg/kg, read-out: plasma level at 6 h postadministration) | Tmax ([2]; male, Sprague-Dawley, rat, plasma, po, 10 mg/kg, read-out: time of maximal plasma concentration) [h] | AUC ([2]; male, Sprague-Dawley, rat, plasma, po, 10 mg/kg, time interval 0–4 h) [µM·h] | bioavailability at 4 h ([2]; male, Sprague-Dawley, rat, plasma, po, p.o. 10 mg/kg versus i.v. 3 mg/kg, time interval 0–4 h) [%] | Cmax [2, 6] [ng/mL] | Cmax at 4 h [2, 6] [µM] | Tmax ([2]; p.o., 10 mg/kg) [h]
1 | COc1ccc2[nH]c3c(c2c1)CN(C(=O)c1cc(C(F)(F)F)[nH]n1)CC3 [Compound 3, (8-Methoxy-1,3,4,5-tetrahydropyrido[4,3-b]indol-2-yl)-[5-(trifluoromethyl)-1H-pyrazol-3-yl]methanone] | the most effective |  |  |  |  |  |  |  |  |  |  |  |  |  |  |  |  | 
2 | Cc1ccc(F)c2[nH]c3c(c12)CN(C(=O)c1cc(C(F)(F)F)[nH]n1)[C@H](C)C3 [Compound 39, (R)-(6-Fluoro-3,9-dimethyl-1,3,4,5-tetrahydro-2H-pyrido[4,3-b]indol-2-yl)-(5-(trifluoromethyl)-1H-pyrazol-3-yl)methanone] |  | 2790 | 7.3 | 2320 ng·h/mL and 6.1 µM·h | 5 | 2.39 | 19 | 89 | ~30 | 2330 | 212 | > 450 ng/mL and ~1.2 µM | 2 | 6.1 | 30 | 769 | 2 | 2
